Laboratory results as given in article PMC11239673, “Structural basis for the bi-specificity of USP25 and USP28 inhibitors” (EMBO Reports, 2024).
Positions count from the first letter of the chain named. Values joined by “and” are separate entries in the source; they are usually repeats but may differ in a detail not shown here. Equal entries are not always repeated. Where two headings read alike, the source gives them in different places.

Experiments:
Format in all cases: biochemical
USP25Δtip Q322A = molecular target: T1, USP25Δtip Q322A (Homo sapiens, UniProt Q9UHP3, DEL465-537/INS464GSGSGS/Q322A); assay: Ub-Rho110 dose–response assay, USP25Δtip Q322A
T1 construct: 6xHis or thioredoxin-6xHis (N, cleaved yes); made in house; host or cells: E. coli BL21star (DE3)
T1 sequence (Q9UHP3 with tags, fused parts or gaps Q322A/DEL465-477/P478G/DEL482-535/A536G/P537S limits assumed): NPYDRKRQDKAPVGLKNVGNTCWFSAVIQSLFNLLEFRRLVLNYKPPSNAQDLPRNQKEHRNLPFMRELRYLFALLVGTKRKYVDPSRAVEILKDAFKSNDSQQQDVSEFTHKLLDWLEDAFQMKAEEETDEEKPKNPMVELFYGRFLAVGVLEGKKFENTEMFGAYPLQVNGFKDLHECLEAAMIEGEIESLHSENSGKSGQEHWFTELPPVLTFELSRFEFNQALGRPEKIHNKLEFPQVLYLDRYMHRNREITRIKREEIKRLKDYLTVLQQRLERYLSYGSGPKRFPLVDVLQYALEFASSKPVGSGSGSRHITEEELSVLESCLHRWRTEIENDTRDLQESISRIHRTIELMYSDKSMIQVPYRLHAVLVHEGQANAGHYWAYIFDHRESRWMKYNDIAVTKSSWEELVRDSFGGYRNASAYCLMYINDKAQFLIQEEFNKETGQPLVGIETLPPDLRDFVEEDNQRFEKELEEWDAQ

USP28Δtip E366Q = molecular target: T2, USP28Δtip E366Q (Homo sapiens, UniProt Q96RU2, E366Q/INS458SGSG); assay: Ub-Rho110 dose–response assay, USP28Δtip E366Q; conditions: for IC50: USP28 - E366Q
T2 sequence (Q96RU2 with tags, fused parts or gaps E366Q/INS458SGSG): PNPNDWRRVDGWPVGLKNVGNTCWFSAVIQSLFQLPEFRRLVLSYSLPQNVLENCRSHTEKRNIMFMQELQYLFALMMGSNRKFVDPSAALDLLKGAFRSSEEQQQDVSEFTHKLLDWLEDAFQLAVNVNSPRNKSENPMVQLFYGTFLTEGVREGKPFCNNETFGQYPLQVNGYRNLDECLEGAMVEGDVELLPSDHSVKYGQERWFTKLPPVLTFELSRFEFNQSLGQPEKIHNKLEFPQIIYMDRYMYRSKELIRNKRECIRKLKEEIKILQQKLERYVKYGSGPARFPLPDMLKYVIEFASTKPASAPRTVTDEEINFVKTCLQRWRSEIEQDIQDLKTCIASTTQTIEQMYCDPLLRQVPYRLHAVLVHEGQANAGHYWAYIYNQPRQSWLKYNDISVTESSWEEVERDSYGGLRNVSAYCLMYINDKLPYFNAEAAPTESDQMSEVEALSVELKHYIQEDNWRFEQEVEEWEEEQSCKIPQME

USP28Δtip WT = molecular target: T3, USP28Δtip WT (Homo sapiens, UniProt Q96RU2, INS458SGSG); assay: Ub-Rho110 dose–response assay, USP28Δtip wt
T3 sequence (Q96RU2 with tags, fused parts or gaps INS458SGSG): T2 sequence (Q96RU2 with tags, fused parts or gaps E366Q/INS458SGSG)

USP28Δtip E366A = molecular target: T4, USP28Δtip E366A (Homo sapiens, UniProt Q96RU2, E366A/INS458SGSG); assay: Ub-Rho110 dose–response assay, USP28Δtip E366A; conditions: for IC50: USP28 - E366A
T4 sequence (Q96RU2 with tags, fused parts or gaps E366A/INS458SGSG): T2 sequence (Q96RU2 with tags, fused parts or gaps E366Q/INS458SGSG)

USP25Δtip E373Q = molecular target: T5, USP25Δtip E373Q (Homo sapiens, UniProt Q9UHP3, DEL465-537/E373Q/INS464GSGSGS); assay: Ub-Rho110 dose–response assay, USP25Δtip E373Q
T5 construct: 6xHis or thioredoxin-6xHis (N, cleaved yes); made in house; host or cells: E. coli BL21star (DE3)
T5 sequence (Q9UHP3 with tags, fused parts or gaps E373Q/DEL465-477/P478G/DEL482-535/A536G/P537S limits assumed): T1 sequence (Q9UHP3 with tags, fused parts or gaps Q322A/DEL465-477/P478G/DEL482-535/A536G/P537S limits assumed) with A166Q, E217Q

USP28Δtip L264F = molecular target: T6, USP28Δtip L264F (Homo sapiens, UniProt Q96RU2, INS458SGSG/L264F); assay: Ub-Rho110 dose–response assay, USP28Δtip L264F; conditions: for IC50: USP28 - L264F
T6 sequence (Q96RU2 with tags, fused parts or gaps L264F/INS458SGSG): T2 sequence (Q96RU2 with tags, fused parts or gaps E366Q/INS458SGSG)

USP28Δtip H261A = molecular target: T7, USP28Δtip H261A (Homo sapiens, UniProt Q96RU2, H261A/INS458SGSG); assay: Ub-Rho110 dose–response assay, USP28Δtip H261A; conditions: for IC50: USP28 - H261A
T7 sequence (Q96RU2 with tags, fused parts or gaps H261A/INS458SGSG): T2 sequence (Q96RU2 with tags, fused parts or gaps E366Q/INS458SGSG)

[1] = mean of replicates, read-out: IC50, mean and SD
[2] = single replicates, read-out: IC50 of each replicate curve (unlabelled line above mean and SD)
[3] = read-out: relative inhibition [%] - USP28 - E366Q
[4] = read-out: relative inhibition [%] - USP28 - WT
[5] = read-out: relative inhibition [%] - USP28 - L264F
[6] = read-out: relative inhibition [%] - USP28 - H261A

Cc1ccc2c(N)c(C(=O)NC3CCc4cc(N5CC6CCC(C5)N6)ccc4C3)sc2n1 (stereo not drawn) [FT206]
inhibition at 100 µM (USP25Δtip Q322A; inhibitor 100.00 µM, single replicates, read-out: relative inhibition [%] - USP25 - Q322A): 94% | t-test vs. USP25 WT control - Q322A (USP25Δtip Q322A; p value, inhibitor IC50 on USP25 Q322A compared with USP25 WT): 8.787E-03 | inhibition at 11.11 µM (USP25Δtip Q322A; read-out: relative inhibition [%] - USP25 - Q322A, inhibitor 11.11 µM, single replicates): 85.2% | inhibition at 33.33 µM (USP25Δtip Q322A; read-out: relative inhibition [%] - USP25 - Q322A, inhibitor 33.33 µM, single replicates): 88.7% | t-test vs. USP28 WT control - E366Q (USP28Δtip E366Q): 3.570E-04 | IC50 (USP28Δtip E366Q; [1]): 17200 nM | IC50 (USP28Δtip E366Q; [2]): 21300 nM and 17600 nM and 14700 nM and 24400 nM and 11500 nM and 13700 nM | inhibition at 11.11 µM (USP28Δtip E366Q; [3]): 34.7% | inhibition at 33.33 µM (USP28Δtip E366Q; [3]): 57.1% | inhibition at 100 µM (USP28Δtip E366Q; [3]): 78.7% | IC50 (USP28Δtip WT; USP28 - WT, single replicates, read-out: IC50 of each replicate curve (unlabelled line above mean and SD)): 184 nM and 209 nM and 213 nM and 88.9 nM and 91.1 nM and 101 nM | IC50 (USP28Δtip WT; USP28Δtip 20 nM, Ub-Rho110 250 nM, 15 min preincubation, average ± SD, n ≥ 5, read-out: IC50, USP28 variants, WT): 150 ± 60 nM | inhibition at 11.11 µM (USP28Δtip WT; [4]): 98.6% | inhibition at 33.33 µM (USP28Δtip WT; [4]): 99.3% | inhibition at 100 µM (USP28Δtip WT; [4]): 99.6% | inhibition at […] (USP28Δtip WT; [4]): 97.5% and 91.4% and 73.1% | t-test vs. USP28 WT control - E366A (USP28Δtip E366A): 4.894E-04 | IC50 (USP28Δtip E366A; [1]): 17300 nM | IC50 (USP28Δtip E366A; [2]): 14500 nM and 15500 nM and 12100 nM and 14200 nM and 25700 nM and 21800 nM | inhibition at 100 µM (USP28Δtip E366A; read-out: relative inhibition [%] - USP28 - E366A): 64.6% | t-test vs. USP25 WT control - E373Q (USP25Δtip E373Q; p value, inhibitor IC50 on USP25 E373Q compared with USP25 WT): 8.243E-06 | inhibition at 100 µM (USP25Δtip E373Q; read-out: relative inhibition [%] - USP25 - E373Q, inhibitor 100.00 µM, single replicates): 48.3% | t-test vs. USP28 WT control - L264F (USP28Δtip L264F): 2.664E-04 | IC50 (USP28Δtip L264F; [1]): 1270 nM | IC50 (USP28Δtip L264F; [2]): 1620 nM and 1310 nM and 1610 nM and 793 nM and 1120 nM and 1150 nM | inhibition at 11.11 µM (USP28Δtip L264F; [5]): 90.1% | inhibition at 33.33 µM (USP28Δtip L264F; [5]): 95.6% | inhibition at 100 µM (USP28Δtip L264F; [5]): 97.8% | inhibition at […] (USP28Δtip L264F; [5]): 74.2% and 44.5% | t-test vs. USP28 WT control - H261A (USP28Δtip H261A): 1.437E-02 | IC50 (USP28Δtip H261A; [1]): 1370 nM | IC50 (USP28Δtip H261A; [2]): 2480 nM and 1420 nM and 1160 nM and 1020 nM and 771 nM | inhibition at 11.11 µM (USP28Δtip H261A; [6]): 80.8% | inhibition at 33.33 µM (USP28Δtip H261A; [6]): 98.5% | inhibition at 100 µM (USP28Δtip H261A; [6]): 107% | inhibition at […] (USP28Δtip H261A; [6]): 74.8%
